From the supplement of paper PMC10307832

Columns and labels:
Assay in all cases: relative viability (nuclei count vs DMSO), 5 days (fraction); higher = more cells survive
4EGI-1 + Navitoclax = compound: O=C(O)C(Cc1ccccc1[N+](=O)[O-])=NNc1nc(-c2ccc(Cl)c(Cl)c2)cs1 (mixture of isomers) [4EGI-1] + CC1(C)CCC(c2ccc(Cl)cc2)=C(CN2CCN(c3ccc(C(=O)NS(=O)(=O)c4ccc(N[C@H](CCN5CCOCC5)CSc5ccccc5)c(S(=O)(=O)C(F)(F)F)c4)cc3)CC2)C1 [Navitoclax] (partner 0.5 µM)
How it was run: (§1)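 Relative viability is defined as nuclei in treated wells over nuclei in vehicle wells. Duplicate plates were run and medians reported. Lung cancer cell lines in 1536-well plates were dosed by pin tool one day after seeding, with one drug or with a fixed anchor-drug dose plus five library-drug doses (not always all listed) in √10 steps, and nuclei were counted after 5 days.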

XMD8-85 + Trametinib = compound: CN1CCN(CC1)C2=CC(=C(C=C2)NC3=NC=C4C(=N3)N(C5=CC=CC=C5C(=O)N4C)C)OC [XMD8-85] + CC(=O)Nc1cccc(-n2c(=O)n(C3CC3)c(=O)c3c(Nc4ccc(I)cc4F)n(C)c(=O)c(C)c32)c1 [Trametinib] (partner 0.02 µM)
How it was run: as §1

XMD8-85 = compound: CN1CCN(CC1)C2=CC(=C(C=C2)NC3=NC=C4C(=N3)N(C5=CC=CC=C5C(=O)N4C)C)OC [XMD8-85]
How it was run: (§2)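 Viability was defined as treated-well nuclei divided by vehicle-well nuclei, with the median taken over replicate plates. Cells from lung cancer lines sat overnight at 37 °C in 1536-well plates, received five √10-spaced library-drug doses by pinning on vehicle-anchored plates, and grew 5 days without medium change before one-step fixation, permeabilisation and Hoechst staining, 4× imaging and MetaXpress nuclear counts. Only plates with control CV under 25% and at least one doubling were kept.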

4EGI-1 = compound: O=C(O)C(Cc1ccccc1[N+](=O)[O-])=NNc1nc(-c2ccc(Cl)c(Cl)c2)cs1 (mixture of isomers) [4EGI-1]
How it was run: as §2

Cell Line | relative viability (4EGI-1 + Navitoclax; first compound 0.5 µM) | relative viability (4EGI-1 + Navitoclax; first compound 1.581 µM) | relative viability (4EGI-1 + Navitoclax; first compound 5 µM) | relative viability (4EGI-1 + Navitoclax; first compound 15.81 µM) | relative viability (4EGI-1 + Navitoclax; first compound 50 µM) | relative viability (XMD8-85 + Trametinib; first compound 0.08 µM) | relative viability (XMD8-85 + Trametinib; first compound 0.253 µM) | relative viability (XMD8-85 + Trametinib; first compound 0.8 µM) | relative viability (XMD8-85 + Trametinib; first compound 2.53 µM) | relative viability (XMD8-85 + Trametinib; first compound 8 µM) | relative viability (XMD8-85; 0.08 µM) | relative viability (XMD8-85; 0.253 µM) | relative viability (XMD8-85; 0.8 µM) | relative viability (XMD8-85; 2.53 µM) | relative viability (XMD8-85; 8 µM) | relative viability (4EGI-1; 0.5 µM) | relative viability (4EGI-1; 1.581 µM) | relative viability (4EGI-1; 5 µM) | relative viability (4EGI-1; 15.81 µM) | relative viability (4EGI-1; 50 µM)
A-427 | 0.998 | 0.823 | 0.815 | 0.687 | 0.928 | 0.755 | 0.731 | 0.697 | 0.714 | 0.631 | 1.04 | 1 | 1.07 | 1.12 | 0.74 | 1.05 | 0.762 | 1 | 0.86 | 0.254
NCI-H1755 | 1.02 | 0.995 | 0.949 | 0.86 | 0.833 | 0.801 | 0.857 | 0.745 | 0.876 | 0.758 | 1.02 | 1.08 | 0.96 | 1.02 | 1.03 | 1.04 | 1.04 | 0.957 | 0.896 | 0.622
NCI-H2347 | 0.972 | 0.586 | 0.776 | 0.861 | 0.721 | 0.275 | 0.312 | 0.283 | 0.298 | 0.286 | 1.03 | 0.973 | 1.04 | 1.03 | 0.809 | 1.14 | 0.965 | 1.02 | 1.03 | 0.823
NCI-H2170 | 0.671 | 0.515 | 0.584 | 0.573 | 0.354 | 0.848 | 0.845 | 1.03 | 1 | 0.702 | 1.03 | 1.09 | 1.01 | 1.12 | 0.993 | 0.986 | 0.942 | 0.992 | 0.853 | 0.606
LXF-289 | 1.01 | 0.933 | 0.983 | 0.915 | 0.784 | 0.658 | 0.646 | 0.696 | 0.728 | 0.656 | 0.996 | 1.05 | 0.997 | 1.06 | 0.979 | 1.03 | 1.01 | 0.98 | 0.864 | 0.573
NCI-H1666 | 1.14 | 1.05 | 1.31 | 0.833 | 0.248 | 0.918 | 0.868 | 0.852 | 0.947 | 0.794 | 0.965 | 0.963 | 0.919 | 0.971 | 0.998 | 1.05 | 0.942 | 1.09 | 0.781 | 0.436
HCC-78 | 0.96 | 0.492 | 0.753 | 0.829 | 0.802 | 1.14 | 1.02 | 0.735 | 0.536 | 0.402 | 1.14 | 1.02 | 0.848 | 0.92 | 0.512 | 1.09 | 0.739 | 0.994 | 0.884 | 0.872
NCI-H2126 | 0.892 | 0.793 | 0.858 | 0.709 | 0.806 | 0.584 | 0.6 | 0.615 | 0.538 | 0.398 | 0.96 | 1.02 | 1.03 | 1.11 | 0.821 | 1.05 | 0.937 | 1.05 | 0.837 | 0.79
NCI-H1993 | 0.952 | 0.895 | 0.77 | 0.7 | 0.483 | 0.484 | 0.436 | 0.537 | 0.494 | 0.381 | 0.861 | 0.965 | 1.01 | 1.12 | 0.89 | 1 | 0.847 | 0.908 | 0.616 | 0.573
LOU-NH91 | 0.91 | – | 0.741 | 0.367 | 0.526 | 0.792 | 0.807 | 0.755 | 0.785 | 0.621 | 0.993 | 0.97 | 0.939 | 1.09 | 0.734 | 1.02 | – | 1 | 0.764 | 0.751
NCI-H1437 | 1.19 | 1 | 1.04 | 0.395 | 0.178 | 0.547 | 0.487 | 0.491 | 0.594 | 0.308 | 1 | 1.01 | 1.01 | 0.99 | 0.747 | 1.04 | 0.969 | 0.947 | 0.592 | 0.326
H3255 | 0.587 | 0.477 | 0.557 | 0.137 | 0.368 | 0.576 | 0.593 | 0.465 | 0.554 | 0.373 | 1.1 | 0.929 | 0.882 | 0.916 | 0.674 | 1.1 | 0.784 | 1.01 | 0.801 | 0.981
NCI-H322M | 1.21 | 1.18 | 1.16 | 1.17 | 1.41 | 0.534 | 0.5 | 0.44 | 0.418 | 0.455 | 0.906 | 0.937 | 0.939 | 0.97 | 0.621 | 0.94 | – | 1.05 | 0.75 | 0.5
UMC-11 | 0.392 | 0.345 | 0.367 | 0.301 | 0.216 | 0.723 | 0.738 | 0.696 | 0.683 | 0.403 | 1.03 | 0.982 | 1.11 | 0.964 | 0.739 | 1.13 | 1.11 | 1.01 | 0.986 | 0.403
NCI-H1915 | 0.825 | 0.606 | 0.797 | 0.754 | 0.596 | 0.328 | 0.309 | 0.251 | 0.478 | 0.282 | 0.975 | 1 | 1.01 | 1.03 | 0.883 | 1.02 | 0.738 | 1.05 | 0.972 | 0.633
